Measured values reported in ChEMBL document CHEMBL1201862, “PubChem BioAssay data set” (2004).
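96-well plates; 48 h exposure; 5 concentrations. Endpoints by linear interpolation between flanking doses. Not reached: highest tested concentration assigned. GI50 is the concentration that inhibits growth by half.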 Active and inactive are the calls of the source. No stated cut-off is given here; in the data, active = GI50 up to about 1.1 µM and inactive = higher.

Assays:
Experiment in all cases: NCI anticancer screen, dose series, 48 h
Hs-578T = test system: Hs-578T
MDA-MB-435 = test system: MDA-MB-435
Malme-3M = test system: Malme-3M
CCRF-CEM = test system: CCRF-CEM
IGROV-1 = test system: IGROV-1
SW-620 = test system: SW-620
U-251 = test system: U-251
SF-539 = test system: SF-539
RXF 393 = test system: RXF 393
RPMI-8226 = test system: RPMI-8226
UO-31 = test system: UO-31
SNB-75 = test system: SNB-75
HL-60 = test system: HL-60
OVCAR-8 = test system: OVCAR-8
MDA-MB-231 = test system: MDA-MB-231
OVCAR-4 = test system: OVCAR-4
HCC 2998 = test system: HCC 2998
786-0 = test system: 786-0
NCI-H460 = test system: NCI-H460
LOX IMVI = test system: LOX IMVI

Row | SMILES | GI50 (Hs-578T) | GI50 (MDA-MB-435) | GI50 (Malme-3M) | GI50 (CCRF-CEM) | GI50 (IGROV-1) | GI50 (SW-620) | GI50 (U-251) | GI50 (SF-539) | GI50 (RXF 393) | GI50 (RPMI-8226) | GI50 (UO-31) | GI50 (SNB-75) | GI50 (HL-60) | GI50 (OVCAR-8) | GI50 (MDA-MB-231) | GI50 (OVCAR-4) | GI50 (HCC 2998) | GI50 (786-0) | GI50 (NCI-H460) | GI50 (LOX IMVI)
1 | Cn1c(=O)oc2cc(C(=O)CSC(=S)N3CCCCCC3)ccc21 | 19 µM (inactive) | > 100 µM (inactive) | > 100 µM (inactive) | 75.5 µM (inactive) | > 100 µM (inactive) | > 100 µM (inactive) | 72.8 µM (inactive) | > 100 µM (inactive) | > 100 µM (inactive) | > 100 µM (inactive) | > 100 µM (inactive) | > 100 µM (inactive) | 51.8 µM (inactive) | > 100 µM (inactive) | > 100 µM (inactive) | > 100 µM (inactive) | 78.7 µM (inactive) | > 100 µM (inactive) | 52.7 µM (inactive) | 
2 | O=C1C(Cl)=C(Cl)C(Cl)(Cl)C(Cl)C1(Cl)Cl (stereo not given) | 21.3 µM (inactive) | 23.1 µM (inactive) | 18.8 µM (inactive) | 27.3 µM (inactive) | 17 µM (inactive) | 22 µM (inactive) | 19 µM (inactive) | 17.5 µM (inactive) | 20 µM (inactive) | 19.6 µM (inactive) | 15.8 µM (inactive) | 21.5 µM (inactive) | 18.4 µM (inactive) | 32.2 µM (inactive) | 20 µM (inactive) |  | 17.3 µM (inactive) | 37.8 µM (inactive) | 19.9 µM (inactive) | 19.4 µM (inactive)
3 | C=CC(C)CCC(C/C=C(\C)CCC=C(C)C)C(=C)CCCC(C)C (stereo not given) | > 100 µM (inactive) | > 100 µM (inactive) | > 100 µM (inactive) | > 100 µM (inactive) | > 100 µM (inactive) | > 100 µM (inactive) | > 100 µM (inactive) | > 100 µM (inactive) | > 100 µM (inactive) | > 100 µM (inactive) | > 100 µM (inactive) | > 100 µM (inactive) | > 100 µM (inactive) | > 100 µM (inactive) | > 100 µM (inactive) | > 100 µM (inactive) | > 100 µM (inactive) | > 100 µM (inactive) | > 100 µM (inactive) | > 100 µM (inactive)
4 | C=CC[C@H]1[C@H](O[Si](C)(C)C(C)(C)C)C=CC(=O)[C@@H]1CC(=O)OCC | 19 µM (inactive) | 13.4 µM (inactive) | 12.7 µM (inactive) | 12 µM (inactive) | 16.4 µM (inactive) | 15.5 µM (inactive) | 14.6 µM (inactive) | 17.1 µM (inactive) | 12.2 µM (inactive) | 2.31 µM (inactive) | 12.9 µM (inactive) | 16.3 µM (inactive) | 8.04 µM (inactive) | 16.4 µM (inactive) | 14.5 µM (inactive) | 11.8 µM (inactive) | 12.9 µM (inactive) | 14.5 µM (inactive) | 14 µM (inactive) | 17.5 µM (inactive)
5 | O=C(O)C12C3CCC(CC3)C1(C(=O)O)C1CCC2C1 (stereo not given) | > 100 µM (inactive) | > 100 µM (inactive) | > 100 µM (inactive) | > 100 µM (inactive) | > 100 µM (inactive) | > 100 µM (inactive) | > 100 µM (inactive) | > 100 µM (inactive) | > 100 µM (inactive) | > 100 µM (inactive) | > 100 µM (inactive) | > 100 µM (inactive) | > 100 µM (inactive) | > 100 µM (inactive) | > 100 µM (inactive) |  | > 100 µM (inactive) | > 100 µM (inactive) | > 100 µM (inactive) | > 100 µM (inactive)
6 | Fc1cc(C2=C[C@H](c3ccc4c(c3)OCO4)NC(=S)N2)c(Cl)cc1Cl | 70 µM (inactive) | 34.6 µM (inactive) | 30.7 µM (inactive) | 21.8 µM (inactive) | 27.4 µM (inactive) | 36 µM (inactive) | 22.9 µM (inactive) | 46.7 µM (inactive) | 23 µM (inactive) | 22.9 µM (inactive) | 39.2 µM (inactive) | 20.8 µM (inactive) | 0.0303 µM (active) | 41.2 µM (inactive) | 23.8 µM (inactive) | 38.1 µM (inactive) | 23.2 µM (inactive) | 39.9 µM (inactive) | 25.5 µM (inactive) | 37.2 µM (inactive)
7 | Nc1ccc(OCCCc2c(-c3ccccc3)[nH]c(N)nc2=O)cc1 | 12.3 µM (inactive) | 49.7 µM (inactive) | 26.8 µM (inactive) | 43 µM (inactive) | 31.3 µM (inactive) | > 100 µM (inactive) | 69.5 µM (inactive) | 28.1 µM (inactive) | 63.8 µM (inactive) | 84.9 µM (inactive) | 26 µM (inactive) | 66.4 µM (inactive) | 86.9 µM (inactive) | 44.4 µM (inactive) | 29.9 µM (inactive) | 31.6 µM (inactive) | 22.8 µM (inactive) | 45.2 µM (inactive) | 24.6 µM (inactive) | 31 µM (inactive)
8 | COc1c(Br)cc2c(c1OC)C(Br)CCC(Br)(Br)C2=O (stereo not given) | 10.4 µM (inactive) | 0.434 µM (active) | 1.89 µM (inactive) |  | 0.482 µM (active) | 0.38 µM (active) | 2.18 µM (inactive) | 1.85 µM (inactive) | 0.706 µM (active) | 1.34 µM (inactive) | 1.37 µM (inactive) | 9.02 µM (inactive) | 0.787 µM (active) | 0.378 µM (active) | 3.1 µM (inactive) | 1.65 µM (inactive) | 5.08 µM (inactive) | 0.385 µM (active) | 2.75 µM (inactive) | 0.419 µM (active)
9 | COC1(OC)N=C(N)C2(C#N)/C(=N/N(C)C)CC(C)C12C#N (stereo not given) | > 100 µM (inactive) | > 100 µM (inactive) | > 100 µM (inactive) | > 100 µM (inactive) | > 100 µM (inactive) | > 100 µM (inactive) | > 100 µM (inactive) | > 100 µM (inactive) | > 100 µM (inactive) | > 10 µM (inactive) | > 100 µM (inactive) | 71.9 µM (inactive) | > 100 µM (inactive) | > 100 µM (inactive) | > 100 µM (inactive) |  | > 100 µM (inactive) | > 100 µM (inactive) |  | > 100 µM (inactive)
10 | O=C1O/C(=C(/Cl)c2c3ccccc3cc3ccccc23)c2ccccc21 | 23 µM (inactive) | 22.2 µM (inactive) | 48.1 µM (inactive) | 4 µM (inactive) | 22.5 µM (inactive) | 30.7 µM (inactive) | 30.5 µM (inactive) | 23.6 µM (inactive) | 33.3 µM (inactive) | 20.3 µM (inactive) | 44.2 µM (inactive) | 4.75 µM (inactive) | 4.1 µM (inactive) | 23.4 µM (inactive) | 19.9 µM (inactive) | 17.2 µM (inactive) | 30.9 µM (inactive) | 14.4 µM (inactive) | 26.5 µM (inactive) | 3.33 µM (inactive)
11 | CC1(C)CN=C(Nc2ccc(Cl)cc2)S1 | > 100 µM (inactive) | > 100 µM (inactive) | > 100 µM (inactive) | 74.3 µM (inactive) | > 100 µM (inactive) | > 100 µM (inactive) | > 100 µM (inactive) | > 100 µM (inactive) | > 100 µM (inactive) | 52.6 µM (inactive) | 37.2 µM (inactive) | 70.8 µM (inactive) | 30.5 µM (inactive) | > 100 µM (inactive) | > 100 µM (inactive) | 72.3 µM (inactive) | > 100 µM (inactive) | > 100 µM (inactive) |  | 78.3 µM (inactive)
12 | C[n+]1c(-c2ccc(/C=N\NC(=O)c3ccc(C(=O)N/N=C/c4ccc(-c5cn6ccsc6[n+]5C)cc4)cc3)cc2)cn2ccsc21 | 19.9 µM (inactive) | 15.8 µM (inactive) | 21 µM (inactive) | 25.4 µM (inactive) | 20 µM (inactive) | 18.5 µM (inactive) | 25.6 µM (inactive) | 23.6 µM (inactive) | 22.8 µM (inactive) | 14.2 µM (inactive) | 15.2 µM (inactive) | 23.3 µM (inactive) | 16.5 µM (inactive) | 14.8 µM (inactive) | 21.4 µM (inactive) | 28.8 µM (inactive) | 34 µM (inactive) | 16.6 µM (inactive) | 19.4 µM (inactive) | 
13 | Cc1nc2ccccc2n1Cc1nnc(-c2ccccc2)o1 | > 100 µM (inactive) | 0.104 µM (active) | > 100 µM (inactive) | > 100 µM (inactive) | 72.9 µM (inactive) | 90.2 µM (inactive) | > 100 µM (inactive) | 27.2 µM (inactive) | 35.9 µM (inactive) | 75 µM (inactive) | > 100 µM (inactive) | 46.3 µM (inactive) | > 100 µM (inactive) | > 100 µM (inactive) | > 100 µM (inactive) |  | > 100 µM (inactive) | 38.7 µM (inactive) | 91 µM (inactive) | 25.1 µM (inactive)
14 | COc1c(C)c2c(c(O)c1C/C=C(\C)CCC(=O)O)C(=O)OC2 [MYCOPHENOLIC ACID] | 2.51 µM (inactive) | 0.871 µM (active) |  | 0.49 µM (active) | 1.18 µM (inactive) | 0.571 µM (active) | 0.342 µM (active) | 1.46 µM (inactive) | 2.78 µM (inactive) | 1.7 µM (inactive) | 3.1 µM (inactive) | 6.81 µM (inactive) | 1.43 µM (inactive) | 1.08 µM (active) | 2 µM (inactive) | > 21.8 µM (inactive) | 3.94 µM (inactive) | 0.667 µM (active) | 0.488 µM (active) | 0.401 µM (active)
